Measurements taken from patent publication US11945862B2, “Compositions and methods for antibody production” (ImmunoGen, Inc., priority 2017, dated 2024).
Where a name gives a salt, the structure may show the parent alone. Read-outs that look alike come from different tables or passages of the source.

How the values were obtained:
humanized N901 antibody = experiment: Antibody disulfide reduction by CHO cell lysate (RIPA buffer), thiol/antibody by Ellman's assay; assay type: biochemical; conditions: for decrease in antibody-disulfide reduction: versus control without agent
Experimental: For all of the examples described below, cell damage was simulated by multiple freeze-thaw cycles of cells, by addition of RIPA buffer (50 mM Tris-HCl, pH 7.4, 1% NP-40, 0.5% sodium deoxycholate, 0.1% sodium dodecylsulfate), or by using microfluidizer. This damaged cell supernatant or lysate was then incubated with a buffered solution containing antibody with or without the anti-reduction agent being tested, following which the extent of the antibody-disulfide reduction was measured using Ellman's assay for thiol (P. W. Riddles, R. L. Blakeley, and B. Zerner, Methods Enzymol., 91, 49-60, 1983) or by non-reducing SDS protein LabChip analysis. The total thiol level present in the mixture of damaged cell supernatant/lysate was measured initially.
The effect of 1,2-naphthoquinone-4-sulfonic acid (NQS) on antibody-disulfide reduction was studied by incubating 1,2-naphthoquinone-4-sulfonic acid at several concentrations with antibody and damaged CHO lysate. The damaged CHO cell lysate was generated by the addition of 0.5 ml RIPA buffer (50 mM Tris-HCl, pH 7.4, 1% NP-40, 0.5% sodium deoxycholate, 0.1% sodium dodecylsulfate) to 100 million CHO cells. The thiol concentration in CHO cell lysate was measured by Ellman's assay as 2.1 mM.
Each sample contained pre-mixed 0.5 ml RIPA buffer (50 mM Tris-HCl, pH 7.4, 1% NP-40, 0.5% sodium deoxycholate, 0.1% sodium dodecylsulfate) with 1 mg humanized N901 antibody, with or without 1,2-naphthoquinone-4-sulfonic acid (25 micromolar, or 50 micromolar, or 100 micromolar), which was added to a cell pellet of 100 million CHO cells, and the resuspended cells were incubated at ambient temperature for 30 minutes, following which the cell debris were pelleted by centrifugation (16,000 g, 5 min). The supernatant from each sample was added to 50 microliter immobilized-Protein A beads (RepliGen) and rotated at ambient temperature for 3 hours, after which the supernatant was removed and the beads washed with PBS.
(§1) The thiol content of the immobilized antibody was determined by the addition of 0.6 ml of PBS containing 0.5 mM DTNB (Ellman's reagent) to the beads, rotation for about 10 minutes, centrifugation, and absorbance measurement of supernatant at 412 nm.
The effect of anthraquinone-2-sulfonic acid (AQS) on antibody-disulfide reduction was studied during co-incubation of anthraquinone-2-sulfonic acid with antibody and damaged CHO lysate. Each sample contained pre-mixed 1 ml RIPA buffer (50 mM Tris-HCl, pH 7.4, 1% NP-40, 0.5% sodium deoxycholate, 0.1% sodium dodecylsulfate) with 1 mg humanized N901 antibody, with or without 0.2 mM anthraquinone-2-sulfonic acid (AQS), which was added to a cell pellet of 100 million CHO cells, and the resuspended cells were incubated at ambient temperature for 30 minutes, following which the cell debris were pelleted by centrifugation (16,000 g, 5 min). The thiol concentration in CHO cell lysate was 1 mM (Ellman's assay).
as §1, with “The supernatant from each sample was added to 50 microliter immobilized-Protein A beads (RepliGen) and rotated at ambient temperature for 3 hours, after which the supernatant was removed and the beads washed with PBS. The” for “The”
In another experiment, 1 mg huN901 antibody was incubated with CHO lysate, with or without 0.4 mM anthraquinone-2-sulfonic acid for 4 hours. The mixture was then analyzed for thiol/antibody as above.
The thiol concentration in CHO cell lysate was 1 mM (Ellman's assay).
The supernatant from each sample was added to 50 microliter immobilized-Protein A beads (RepliGen) and rotated at ambient temperature for 3 hours, after which the supernatant was removed and the beads washed with PBS. […]

[1] = system: Calu3 human lung cancer cells; experiment: Cell viability, microscopic observation and Cell Titer Glo ATP assay; assay type: cell-based; conditions: 1 day
Experimental: The effect of incubating cells with anthraquinone-2-sulfonic acid (AQS) was tested using Calu3 human lung cancer cells. Effects on cell viability were assayed by microscopic observation of cells and by ATP-based viability assay using Cell Titer Glo reagent (Promega).

[2] = system: Humanized FOLR1 IgG1 antibody; experiment: Antibody disulfide reduction by CHO cell lysate (RIPA buffer), thiol per antibody by Ellman's assay; assay type: biochemical
Experimental: Lysates of CHO cells (˜60 million cells lysed in 0.6 ml RIPA buffer and clarified by centrifugation) were added to each of these mixtures. The pH values of all samples were adjusted to 7. […] The samples were incubated with 200 microliter immobilized-Protein A beads (RepliGen) and rotated at ambient temperature for 3 hours, after which the supernatant was removed and the beads washed with PBS. The thiol content of the immobilized antibody was determined by the addition of 0.2 ml of PBS containing 0.5 mM DTNB (Ellman's reagent) to the beads, rotation for about 10 minutes, centrifugation, and absorbance measurement of the supernatant at 412 nm.
The pH values of all samples were adjusted to 7. The samples were incubated with 200 microliter immobilized-Protein A beads (RepliGen) and rotated at ambient temperature for 3 hours, after which the supernatant was removed and the beads washed with PBS. The thiol content of the immobilized antibody was determined by the addition of 0.2 ml of PBS containing 0.5 mM DTNB (Ellman's reagent) to the beads, rotation for about 10 minutes, centrifugation, and absorbance measurement of the supernatant at 412 nm.
To test the effect of L-cystine bis(t-butyl ester) (CDBE) on protecting antibody disulfide bonds from reduction by CHO lysate, humanized FOLR1 IgG1 antibody (2 mg) was incubated with CHO lysate in RIPA buffer (0.6 ml lysate of 60 million CHO cells in 0.6 ml RIPA buffer, clarified by centrifugation) without or with 0.5 or 1 mM CDBE. The samples were rotated at ambient temperature with 200 microliter immobilized-Protein A beads (RepliGen) for 2 hours, after which the supernatant was removed and the beads washed with PBS. The thiol content of the immobilized antibody was determined by the addition of 0.2 ml of PBS containing 0.5 mM DTNB (Ellman's reagent) to the beads, centrifugation, and absorbance measurement of the supernatant at 412 nm.
The samples were rotated at ambient temperature with 200 microliter immobilized-Protein A beads (RepliGen) for 2 hours, after which the supernatant was removed and the beads washed with PBS. The thiol content of the immobilized antibody was determined by the addition of 0.2 ml of PBS containing 0.5 mM DTNB (Ellman's reagent) to the beads, centrifugation, and absorbance measurement of the supernatant at 412 nm.

humanized FOLR1 IgG1 = experiment: Antibody fragmentation in HCCF treated with 20% (v/v) microfluidized CHO cells, non-reducing SDS-Protein Lab Chip; assay type: biochemical; conditions: 1 mM of each additive, 6 h; control 78% fragmentation
Experimental: The samples were quenched with 5 mM N-ethylmaleimide (NEM), purified using immobilized Protein A, and subjected to non-reducing SDS-Protein Lab Chip electrophoretic analysis.

CHO cells = experiment: Viability of CHO cells after 1 day treatment; conditions: antibody-producing CHO cells, about two weeks continuous culture, control 63.8%
[3] = Reactivity of AQS with a model thiol, Ellman's assay of thiol groups; conditions: 1 mM AQS with 1 mM cysteine ethyl ester, PBS, ambient temperature
Experimental: In a separate experiment, the reactivity of anthraquinone-2-sulfonic acid (AQS) with a model thiol (L-cysteine ethyl ester) at ambient temperature was investigated by incubating 1 mM AQS with 1 mM cysteine ethyl ester at ambient temperature in PBS, using Ellman's assay of thiol groups to measure the extent of reaction. At time points of 1 hour, 2 hours, 3 hours, and 4 hours, the percent decrease in thiol values for the 1 mM AQS with 1 mM cysteine ethyl ester mixture versus thiol in a 1 mM cysteine ethyl ester (No AQS) control were 2%, 8%, 12%, and 20%, respectively.

Humanized IgG2 antibody = experiment: IgG2 disulfide reduction by CHO cell lysate, DTNB thiol assay; assay type: biochemical; conditions: 1 mM agent, 40% v/v CHO cell lysate, 5 hours, pH 7; control 0.84
Experimental: Humanized IgG2 antibody (1 mg/ml; final concentration) was incubated with 40% v/v CHO cell lysate (˜40 million cells lysed with 0.4 ml RIPA buffer and debris removed by centrifugation) in a total volume of 1 ml. The control sample was adjusted to pH 7 and rotated at RT for 5 hours with 100 μl protein A beads. […] After the incubation time of 5 hours, the supernatant was removed and the beads were washed three times with 10 ml PBS before the thiol amount of the immobilized antibody was analyzed by adding 0.5 mM DTNB and measuring the absorbance at 412 nm.

humanized IgG4 = experiment: IgG4 disulfide reduction by CHO cell lysate, DTNB thiol assay; assay type: biochemical; conditions: 1 mM agent, 30% v/v CHO cell lysate, 4 hours, pH 7; control 7.7
Experimental: All samples were adjusted to pH 7 and incubated with 200 μl protein A beads for 4 hours while rotating at room temperature. After the incubation the supernatant was removed and beads washed three times with 10 ml PBS. To analyze the thiol content of the protein A-bound IgG4 antibody, the beads were incubated with a 0.5 mM DTNB solution for 5 min and the absorbance of the supernatant measured at 412 nm.

physchem = conditions: thermodynamic from solid
From the text: The pH was adjusted to pH 7.1 and the sample was rotated overnight at ambient temperature followed by centrifugation to remove undissolved L-cystine dihydrochloride.

M9346A antibody [4] = assay type: biochemical; conditions: 1 mM additive, conditions where control without additive was 100% fragmented
Experimental: Antibody reduction was induced in a biological assay by adding cell lysate to purified monoclonal antibody. […]. Increasing amounts of CHO cell lysate were added to mimic different percentages of cell lysis, ranging from […]. Fresh NADPH was added to a concentration of 400 μM. The mixtures were incubated in a water bath at 37° C. for 1 h. Free thiols were alkylated by addition of 10% (v/v) of 50 mM N-ethyl-maleimide (NEM) solution. Samples were analyzed by non-reduced sodium dodecyl sulfate denaturing capillary electrophoresis (NR-CE-SDS).
To test the capacity for protection further, the stringency of the assay was increased. […].

[5] = Redox potential of antibody solution with media additive over a range of DTT concentrations; assay type: physicochemical; conditions: 1 mM additive, DTT 0.34 μM to 170 μM, 37° C., 1 h
M9346A antibody [6] = assay type: biochemical

## O=C1c2ccccc2C(=O)c2cc(S(=O)(=O)O)ccc21 [AQS, anthraquinone-2-sulfonic acid]
Humanized N901 antibody; 0.2 mM agent, 3 hours, lysate thiol 1 mM, control 4.86
  thiol/antibody: 2.46 thiol/antibody
Humanized N901 antibody; 0.2 mM agent, 3 hours
  decrease in antibody-disulfide reduction: 49%
Humanized N901 antibody; 0.4 mM agent alone, 4 hours, control 4.34
  thiol/antibody: 1.65 thiol/antibody
Humanized N901 antibody; 0.4 mM agent, 4 hours
  decrease in antibody-disulfide reduction: 62%
[1]; 0.25 mM
  Cell Titer Glo luminescence relative to control cells: 100%
[1]; 0.5 mM
  Cell Titer Glo luminescence relative to control cells: 85%
[1]; 0.25 and 0.5 mM
  cytotoxic effects by microscopic observation: no visible cytotoxic effects
[2]; 2 mM agent, 3 hours, pH 7, lysate of ~40 million cells, control 0.95
  thiol per antibody: about 0.18 thiol per antibody
Humanized FOLR1 IgG1
  fragmentation compared with no additive control: much lower fragmentations
CHO cells; 0.25 mM
  viability count using trypan blue: 66.2%
CHO cells; 0.5 mM
  viability count using trypan blue: 64.8%
CHO cells; 0.75 mM
  viability count using trypan blue: 61.7%
[3]; 1 hour
  percent decrease in thiol versus No AQS control: 2%
[3]; 2 hours
  percent decrease in thiol versus No AQS control: 8%
[3]; 3 hours
  percent decrease in thiol versus No AQS control: 12%
[3]; 4 hours
  percent decrease in thiol versus No AQS control: 20%

## CC(C)(C)OC(=O)[C@@H](N)CSSC[C@H](N)C(=O)OC(C)(C)C [CDBE, L-cystine bis(t-butyl ester)]
[2]; 0.25 mM agent, another experiment
  decrease in disulfide reduction compared to the control: about 78%
[2]; 0.5 mM agent, 2 hours
  decrease in disulfide reduction compared to the control: about 93%
[2]; 0.5 mM agent, 2 hours, control 2.26
  thiol per antibody: about 0.16 thiol per antibody
[2]; 1 mM agent, 2 hours
  decrease in disulfide reduction compared to the control: ~96%
[2]; 1 mM agent, 2 hours, control 2.26
  thiol per antibody: ~0.10 thiol per antibody
[2]; 2 mM agent, another experiment
  decrease in disulfide reduction compared to the control: ~98%
Humanized IgG2 antibody
  reduced thiols per antibody: near-zero reduction
Humanized IgG4
  thiol groups per antibody: no reduced disulfides were detected

## CC(C)(C)OC(=O)[C@@H](N)CSSC[C@H](N)C(=O)OC(C)(C)C [L-cystine bis(t-butyl ester) dihydrochloride]
physchem; water
  solubility: ≥ 500 mM

## Cl.Cl.N[C@@H](CSSC[C@H](N)C(=O)O)C(=O)O [L-cystine dihydrochloride, reference compound]
[2]; L-cystine derived from saturated L-cystine solution, 3 hours, pH 7, control 1.96
  thiol per antibody: about 0.74 thiol per antibody
physchem; pH 7.1, aqueous buffer
  solubility: < 5 mM

## O=S(=O)([O-])[O-].[Cu+2] [copper sulfate]
M9346A antibody [4]
  protection at increased assay stringency: protective of disulfide reduction
[5]
  modulation of redox potential: constant redox potential across all DTT concentrations
M9346A antibody [6]
  intact antibody: 100%

## [O]=[Cr](=[O])([O-])[O][Cr](=[O])(=[O])[O-] [dichromate, reference compound]
[5]
  modulation of redox potential: constant redox potential across all DTT concentrations
M9346A antibody [6]; 1 mM additive, 100 μM DTT, 37° C., 1 h, control 80%
  intact antibody: 100%
